Results taken from publication PMC6572294, “Repurposing of FDA-Approved NSAIDs for DPP-4 Inhibition as an Alternative for Diabetes Mellitus Treatment: Computational and in Vitro Study” (Pharmaceutics, 2019).

Target: T1, human dipeptidyl peptidase-4 (DPP-4) (Homo sapiens, UniProt P27487)
T1 construct: gene DPP4
Assay: fluorogenic Gly-Pro cleavage assay, human DPP-4 inhibitor screening kit (Sigma-Aldrich)
Assay type: biochemical

T1 sequence (P27487 39-766): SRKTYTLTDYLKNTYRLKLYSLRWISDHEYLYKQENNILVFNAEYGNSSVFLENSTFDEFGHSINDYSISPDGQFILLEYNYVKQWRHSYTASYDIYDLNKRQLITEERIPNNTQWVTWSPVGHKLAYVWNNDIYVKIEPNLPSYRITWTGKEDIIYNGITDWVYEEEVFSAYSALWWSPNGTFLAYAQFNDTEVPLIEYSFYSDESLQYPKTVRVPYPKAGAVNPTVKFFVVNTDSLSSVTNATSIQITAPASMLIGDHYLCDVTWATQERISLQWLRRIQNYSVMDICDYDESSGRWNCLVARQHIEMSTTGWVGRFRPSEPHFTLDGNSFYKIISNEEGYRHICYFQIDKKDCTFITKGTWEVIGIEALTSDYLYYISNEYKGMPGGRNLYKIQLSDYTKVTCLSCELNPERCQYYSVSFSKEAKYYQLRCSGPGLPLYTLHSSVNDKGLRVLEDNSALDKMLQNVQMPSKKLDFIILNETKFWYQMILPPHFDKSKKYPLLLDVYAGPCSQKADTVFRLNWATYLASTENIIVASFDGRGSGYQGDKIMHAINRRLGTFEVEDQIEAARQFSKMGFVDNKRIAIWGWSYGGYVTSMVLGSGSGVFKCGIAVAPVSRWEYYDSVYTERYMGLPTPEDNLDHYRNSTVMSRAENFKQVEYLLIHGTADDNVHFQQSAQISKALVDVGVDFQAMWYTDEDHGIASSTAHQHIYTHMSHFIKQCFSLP

CN1C(C(=O)Nc2ccccn2)=C(O)c2ccccc2S1(=O)=O [piroxicam]
IC50: 9.9 µM
